Measured values taken from US10793574B2, “TYK2 inhibitors and uses thereof” (Nimbus Lakshmi, Inc., priority 2016, dated 2020).

Tests used:
[1] = biological target: TYK2 JH1 kinase (Homo sapiens (Human), UniProt P29597); experiment: Tyk2 radioactive kinase assay; type: biochemical; conditions: active kinase assay, ATP 10 μM
Experimental: (§1) Peptide substrate, [KKSRGDYMTMQIG], (20 μM) is prepared in reaction buffer (20 mM Hepes pH 7.5, 10 mM MgCl2, 1 mM EGTA, 0.02% Brij35, 0.02 mg/mL BSA, 0.1 mM […], 2 mM DTT, 1% DMSO. TYK2 (Invitrogen) kinase is added, followed by compounds in DMSO. 33PATP is added to initiate the reaction in ATP at 10 μM. Kinase reaction is incubated for 120 min at room temp and reactions are spotted onto P81 ion exchange paper (Whatman #3698-915), and then washed extensively in 0.75% phosphoric acid, prior to reading the radioactivity counts. For JAK2 (Invitrogen) kinase assay the peptide substrate poly[Glu:Tyr](4:1), 0.2 mg/ml is used, in the reaction carried out the same as for TYK2.

[2] = biological target: JAK2 JH1 kinase (Homo sapiens (Human), UniProt O60674); experiment: JAK2 radioactive kinase assay; type: biochemical; conditions: active kinase assay, ATP 10 μM
Experimental: as §1

Chain of JAK2 JH1 kinase (O60674 808-1132): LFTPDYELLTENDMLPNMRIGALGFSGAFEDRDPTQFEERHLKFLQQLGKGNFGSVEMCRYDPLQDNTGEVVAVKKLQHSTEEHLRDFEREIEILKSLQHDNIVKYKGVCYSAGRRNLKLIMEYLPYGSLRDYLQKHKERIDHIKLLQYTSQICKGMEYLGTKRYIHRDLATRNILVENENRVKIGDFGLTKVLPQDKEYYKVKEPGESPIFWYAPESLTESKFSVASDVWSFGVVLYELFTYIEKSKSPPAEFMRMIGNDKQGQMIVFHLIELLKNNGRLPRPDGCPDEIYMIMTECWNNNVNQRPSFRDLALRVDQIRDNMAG
Chain of TYK2 JH1 kinase (P29597 833-1187): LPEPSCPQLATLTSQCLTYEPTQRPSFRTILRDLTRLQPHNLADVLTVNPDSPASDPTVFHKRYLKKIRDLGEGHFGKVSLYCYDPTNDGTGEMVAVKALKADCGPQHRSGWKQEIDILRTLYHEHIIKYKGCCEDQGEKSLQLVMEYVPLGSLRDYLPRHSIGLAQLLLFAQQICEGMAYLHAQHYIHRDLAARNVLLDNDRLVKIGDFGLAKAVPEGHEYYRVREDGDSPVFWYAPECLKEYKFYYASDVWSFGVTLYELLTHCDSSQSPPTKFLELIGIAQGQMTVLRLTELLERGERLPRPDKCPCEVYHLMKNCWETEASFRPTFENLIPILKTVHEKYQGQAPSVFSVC

inhibitory activity against TYK2 JH1 kinase function [1] | Structure (SMILES) | inhibitory activity against JAK2 JH1 kinase function [2]
no detectable inhibitory activity | COc1c(Nc2cc(NC(=O)C3CC3)ncc2-c2ncc(F)s2)cccc1-c1nnn(C)n1 [VIII-2, N-(5-(5-fluorothiazol-2-yl)-4-((2-methoxy-3-(2-methyl-2H-tetrazol-5-yl)phenyl)amino)pyridin-2-yl)cyclopropanecarboxamide] | no detectable inhibitory activity
no detectable inhibitory activity | COC(=O)c1nnc(-c2cnc(NC(=O)C3CC3)cc2Nc2cccc(-c3ncn(C)n3)c2OC)o1 [VIII-4, methyl 5-(6-(cyclopropanecarboxamido)-4-((2-methoxy-3-(1-methyl-1H-1,2,4-triazol-3-yl)phenyl)amino)pyridin-3-yl)-1,3,4-oxadiazole-2-carboxylate] | no detectable inhibitory activity

The remaining lines, values behind:

Structure (SMILES) | inhibitory activity against TYK2 JH1 kinase function [1] | inhibitory activity against JAK2 JH1 kinase function [2]
COc1c(Nc2cc(NC(=O)C3CC3)nc3[nH]n(C)c(=O)c23)cccc1-c1nnn(C)n1 [Compound I-1, N-(4-((2-methoxy-3-(2-methyl-2H-tetrazol-5-yl)phenyl)amino)-2-methyl-3-oxo-2,3-dihydro-1H-pyrazolo[3,4-b]pyridin-6-yl)cyclopropanecarboxamide] | no detectable inhibitory activity | 
COCc1ccnc(Nc2cc(Nc3cccc(-c4nnn(C)n4)c3OC)c3c(=O)n(C)[nH]c3n2)c1 [Compound I-2, 4-((2-methoxy-3-(2-methyl-2H-tetrazol-5-yl)phenyl)amino)-6-((4-(methoxymethyl)pyridin-2-yl)amino)-2-methyl-1,2-dihydro-3H-pyrazolo[3,4-b]pyridin-3-one] | no detectable inhibitory activity | 
COc1c(Nc2cc(NC(=O)C3CC3)ncc2-c2ncc(Cl)s2)cccc1-c1nnn(C)n1 [VIII-1, N-(5-(5-chlorothiazol-2-yl)-4-((2-methoxy-3-(2-methyl-2H-tetrazol-5-yl)phenyl)amino)pyridin-2-yl)cyclopropanecarboxamide] | no detectable inhibitory activity | no detectable inhibitory activity
COc1c(Nc2cc(NC(=O)C3CC3)ncc2-c2nnc(C(F)(F)F)o2)cccc1-c1ncn(C)n1 [VIII-3, N-(4-((2-methoxy-3-(1-methyl-1H-1,2,4-triazol-3-yl)phenyl)amino)-5-(5-(trifluoromethyl)-1,3,4-oxadiazol-2-yl)pyridin-2-yl)cyclopropanecarboxamide] | no detectable inhibitory activity | no detectable inhibitory activity
